From PubChem BioAssay AID256 (DTP/NCI, 2004)
“And” between values parts separate entries of the source, which are not always exact repeats. Equal values may be shown once. Toxic doses and inconclusive results are not listed. How the source made its calls: active means survival T/C of 150% or more; inactive means T/C below 125% in these data.

Test system: CD2F1 mice, L1210 leukemia ip, survival T/C
Assay: NCI In Vivo Anticancer Drug Screen. Data for tumor model L1210 Leukemia (intraperitoneal) in CD2F1 (CDF1) mice
Conditions: higher = longer survival
Procedure, shortened: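 Read-out first: treated-group measurement over vehicle-control measurement, expressed as a ratio. Animals bore a transplanted tumor line and were dosed with compound or vehicle.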

[1] = endpoint: mean survival time, dose: 50.0 mg/kg/injection, schedule: Q01DX009 (ip), vehicle: saline with Tween-80
[2] = endpoint: mean survival time, dose: 100.0 mg/kg/injection, schedule: Q01DX009 (ip), vehicle: saline with Tween-80
[3] = endpoint: mean survival time, dose: 100.0 mg/kg/injection, schedule: Q04DX003 (ip), vehicle: saline with Tween-80
[4] = endpoint: mean survival time, dose: 200.0 mg/kg/injection, schedule: Q01DX009 (ip), vehicle: saline with Tween-80
[5] = endpoint: mean survival time, dose: 200.0 mg/kg/injection, schedule: Q04DX003 (ip), vehicle: saline with Tween-80
[6] = endpoint: mean survival time, dose: 400.0 mg/kg/injection, schedule: Q01DX009 (ip), vehicle: saline with Tween-80
[7] = endpoint: mean survival time, dose: 400.0 mg/kg/injection, schedule: Q04DX003 (ip), vehicle: saline with Tween-80

Measured: T/C

Clc1cc(Cl)c(C[N+]23CN4CN(CN(C4)C2)C3)cc1Cl
inactive: endpoint: mean survival time, dose: 12.5 mg/kg/injection, schedule: Q01DX009 (ip), vehicle: saline with Tween-80 104 % of control | endpoint: mean survival time, dose: 25.0 mg/kg/injection, schedule: Q01DX009 (ip), vehicle: saline with Tween-80 98 % of control | [1] 92 % of control and 109 % of control | [2] 104 % of control and 112 % of control | [3] 106 % of control | [4] 108 % of control | [5] 104 % of control

O=[N+]([O-])c1ccccc1-c1n[nH]c2ccccc12
inactive: endpoint: mean survival time, dose: 25.0 mg/kg/injection, schedule: Q04DX002 (ip), vehicle: saline with Tween-80 113 % of control | endpoint: mean survival time, dose: 50.0 mg/kg/injection, schedule: Q04DX002 (ip), vehicle: saline with Tween-80 106 % of control | endpoint: mean survival time, dose: 100.0 mg/kg/injection, schedule: Q04DX002 (ip), vehicle: saline with Tween-80 106 % of control | endpoint: mean survival time, dose: 200.0 mg/kg/injection, schedule: Q04DX002 (ip), vehicle: saline with Tween-80 110 % of control

O=C(CCl)OCc1ccc([N+](=O)[O-])o1
inactive: [3] 98 % of control | [5] 101 % of control

CCC(C)C(C(=O)OCCN(C)C)c1ccccc1 (centres undefined)
inactive: [1] 100 % of control | [2] 97 % of control | [4] 103 % of control

O=C(C[n+]1ccccc1/C=N/O)c1ccccc1
inactive: endpoint: mean survival time, dose: 50.0 mg/kg/injection, schedule: Q04DX003 (ip), vehicle: saline with Tween-80 91 % of control

OCC(O)C(O)C(O)C(/C=N/Nc1ccccc1)=N/Nc1ccccc1 (centres undefined)
inactive: endpoint: mean survival time, dose: 75.0 mg/kg/injection, schedule: Q01DX001 (ip), vehicle: saline 95 % of control | endpoint: mean survival time, dose: 150.0 mg/kg/injection, schedule: Q01DX001 (ip), vehicle: saline 95 % of control | endpoint: mean survival time, dose: 300.0 mg/kg/injection, schedule: Q01DX001 (ip), vehicle: saline 95 % of control

Nc1ncnc2c1c1c(=O)[nH]c(=S)[nH]c1n2C1OC(CO)C(O)C1O (centres undefined)
inactive: endpoint: mean survival time, dose: 25.0 mg/kg/injection, schedule: Q01DX005 (ip), vehicle: water 94 % of control | endpoint: mean survival time, dose: 50.0 mg/kg/injection, schedule: Q01DX005 (ip), vehicle: water 100 % of control | endpoint: mean survival time, dose: 100.0 mg/kg/injection, schedule: Q01DX005 (ip), vehicle: water 103 % of control | endpoint: mean survival time, dose: 200.0 mg/kg/injection, schedule: Q01DX005 (ip), vehicle: water 105 % of control | endpoint: mean survival time, dose: 400.0 mg/kg/injection, schedule: Q01DX005 (ip), vehicle: water 114 % of control

Cc1nc(N=C(N)N)nc2ccc(Cl)cc12
inactive: endpoint: mean survival time, dose: 18.8 mg/kg/injection, schedule: Q01DX009 (ip), vehicle: saline 97 % of control

CCOCC(=O)CC(C)C
inactive: endpoint: mean survival time, dose: 100.0 mg/kg/injection, schedule: Q04DX003 (ip), vehicle: other 100 % of control | endpoint: mean survival time, dose: 200.0 mg/kg/injection, schedule: Q04DX003 (ip), vehicle: other 91 % of control | endpoint: mean survival time, dose: 400.0 mg/kg/injection, schedule: Q04DX003 (ip), vehicle: other 100 % of control

COc1ccc(NC(=O)CC(C)=O)cc1
inactive: [2] 97 % of control | [4] 103 % of control | [6] 100 % of control

C=CCOC(=N)C(Cl)(Cl)Cl
inactive: [1] 106 % of control | [2] 95 % of control

NNC(=S)N/N=C/c1ccccn1
inactive: endpoint: mean survival time, dose: 1.56 mg/kg/injection, schedule: Q01DX009 (ip), vehicle: saline 93 % of control and 98 % of control | endpoint: mean survival time, dose: 3.12 mg/kg/injection, schedule: Q01DX009 (ip), vehicle: saline 98 % of control and 100 % of control | endpoint: mean survival time, dose: 6.25 mg/kg/injection, schedule: Q01DX009 (ip), vehicle: saline with Tween-80 105 % of control | endpoint: mean survival time, dose: 6.25 mg/kg/injection, schedule: Q01DX009 (ip), vehicle: saline 115 % of control | endpoint: mean survival time, dose: 6.25 mg/kg/injection, schedule: Q04DX003 (ip), vehicle: saline with Tween-80 118 % of control | endpoint: mean survival time, dose: 6.3 mg/kg/injection, schedule: Q01DX009 (oral), vehicle: saline 92 % of control | endpoint: mean survival time, dose: 12.5 mg/kg/injection, schedule: Q01DX009 (oral), vehicle: saline 98 % of control | endpoint: mean survival time, dose: 12.5 mg/kg/injection, schedule: Q04DX003 (ip), vehicle: saline with Tween-80 98 % of control | endpoint: mean survival time, dose: 25.0 mg/kg/injection, schedule: Q04DX003 (ip), vehicle: saline with Tween-80 102 % of control

CC(N)C12CC3CC(CC(C3)C1)C2 (centres undefined)
inactive: endpoint: mean survival time, dose: 25.0 mg/kg/injection, schedule: Q01DX009 (ip), vehicle: saline 117 % of control | endpoint: mean survival time, dose: 50.0 mg/kg/injection, schedule: Q01DX009 (ip), vehicle: saline 98 % of control | endpoint: mean survival time, dose: 100.0 mg/kg/injection, schedule: Q01DX009 (ip), vehicle: saline 95 % of control

N/N=C(\NN)c1ccccc1
inactive: [3] 92 % of control | [5] 87 % of control | [7] 92 % of control

CCc1ncc(C(O)c2ccc(Cl)cc2)n1Cc1ccccc1 (centres undefined)
inactive: [2] 92 % of control | [4] 95 % of control | [6] 92 % of control

O=P(=O)OP(=O)=O.[O]=[W](=[O])=[O]
inactive: [2] 92 % of control | [3] 100 % of control | [5] 100 % of control | [7] 102 % of control

CC(C)(C)CC(C)(C)c1ccc(OCCOS(=O)(=O)c2cccc([N+](=O)[O-])c2)cc1
inactive: [1] 96 % of control | [2] 89 % of control | [4] 94 % of control

O=NN(CCOS(=O)(=O)c1ccc(Br)cc1)C(=O)NC1CCCCC1
inactive: endpoint: mean survival time, dose: 100.0 mg/kg/injection, schedule: Q01DX001 (ip), vehicle: other 102 % of control | endpoint: mean survival time, dose: 200.0 mg/kg/injection, schedule: Q01DX001 (ip), vehicle: other 101 % of control

COC1/C=C/C=C(/C)Cc2cc(O)c(Cl)c(c2)N(C)C(=O)CC(OC(=O)C(C)C)C2(C)OC2C(C)C2CC1(O)NC(=O)O2 (centres undefined)
inactive: endpoint: mean survival time, dose: 0.12 mg/kg/injection, schedule: Q01DX009 (ip), vehicle: saline + alcohol 111 % of control | endpoint: mean survival time, dose: 0.5 mg/kg/injection, schedule: Q01DX009 (ip), vehicle: saline + alcohol 111 % of control | endpoint: mean survival time, dose: 1.0 mg/kg/injection, schedule: Q01DX009 (ip), vehicle: saline + alcohol 122 % of control | endpoint: mean survival time, dose: 2.0 mg/kg/injection, schedule: Q01DX009 (ip), vehicle: saline + alcohol 90 % of control | endpoint: median survival time, dose: 0.06 mg/kg/injection, schedule: Q01DX009 (ip), vehicle: saline + alcohol 117 % of control | endpoint: median survival time, dose: 0.12 mg/kg/injection, schedule: Q01DX009 (ip), vehicle: saline + alcohol 117 % of control | endpoint: median survival time, dose: 0.5 mg/kg/injection, schedule: Q01DX009 (ip), vehicle: saline + alcohol 122 % of control | endpoint: median survival time, dose: 1.0 mg/kg/injection, schedule: Q01DX009 (ip), vehicle: saline + alcohol 120 % of control | endpoint: median survival time, dose: 2.0 mg/kg/injection, schedule: Q01DX009 (ip), vehicle: saline + alcohol 123 % of control

COC(=O)CCC(=O)c1ccccc1C
inactive: endpoint: mean survival time, dose: 100.0 mg/kg/injection, schedule: Q04DX003 (ip), vehicle: acetone 100 % of control | endpoint: mean survival time, dose: 200.0 mg/kg/injection, schedule: Q04DX003 (ip), vehicle: acetone 100 % of control

O=C(Nc1ccc(Cl)c(Cl)c1)c1cc(Cl)ccc1O
inactive: [2] 102 % of control | [4] 100 % of control | [6] 105 % of control

O=Cc1cccc(OCc2ccc([N+](=O)[O-])cc2)c1
inactive: endpoint: mean survival time, dose: 50.0 mg/kg/injection, schedule: Q01DX009 (ip), vehicle: Klucel (hydroxypropylcellulose) (HPC) 105 % of control | endpoint: mean survival time, dose: 100.0 mg/kg/injection, schedule: Q01DX009 (ip), vehicle: Klucel (hydroxypropylcellulose) (HPC) 108 % of control | endpoint: mean survival time, dose: 200.0 mg/kg/injection, schedule: Q01DX009 (ip), vehicle: Klucel (hydroxypropylcellulose) (HPC) 97 % of control

O=[N+]([O-])c1ccc(N/N=C(\CO)c2ccccc2)c([N+](=O)[O-])c1
inactive: endpoint: mean survival time, dose: 100.0 mg/kg/injection, schedule: Q04DX003 (ip), vehicle: saline 109 % of control | endpoint: mean survival time, dose: 200.0 mg/kg/injection, schedule: Q04DX003 (ip), vehicle: saline 97 % of control | endpoint: mean survival time, dose: 400.0 mg/kg/injection, schedule: Q04DX003 (ip), vehicle: saline 108 % of control

O=C1NC(=O)C(c2ccc(Cl)cc2)N1 (centres undefined)
inactive: [2] 93 % of control | [4] 105 % of control | [6] 104 % of control
